Data taken from US20180280377A1, “Imidazo[4,5-c]quinolin-2-one Compounds and Their Use in Treating Cancer” (ASTRAZENECA AB, priority 2015, published 2018).

Key:
PI3Kα = PI3Kα (Homo sapiens, UniProt P42336); assay: PI3K cellular potency assay (phospho-Akt T308 in BT474 cells, ELISA); format: cell-based; details: 2 h, phospho-Akt (T308); Table 2; read-out: Assay c) PI3Kα Cell IC50
Procedure: The following assays were used to measure the effects of the compounds of the present invention: a) ATM cellular potency assay; b) PI3K cellular potency assay; c) mTOR cellular potency assay; d) ATR cellular potency assay. During the description of the assays, generally: • i. […] IC50 values were calculated using a smart fitting model in Genedata.
This assay was used to measure PI3K-α inhibition in cells. PDK1 was identified as the upstream activation loop kinase of protein kinase B (Akt1), which is essential for the activation of PKB. Activation of the lipid kinase phosphoinositide 3 kinase (PI3K) is critical for the activation of PKB by PDK1.
Following ligand stimulation of receptor tyrosine kinases, PI3K is activated, which converts PIP2 to PIP3, which is bound by the PH domain of PDK1 resulting in recruitment of PDK1 to the plasma membrane where it phosphorylates AKT at Thr308 in the activation loop.
The aim of this cell-based mode of action assay is to identify compounds that inhibit PDK activity or recruitment of PDK1 to membrane by inhibiting PI3K activity. Phosphorylation of phospho-Akt (T308) in BT474c cells following treatment with compounds for 2 h is a direct measure of PDK1 and indirect measure of PI3K activity.
The following morning compounds in 100% DMSO were added to assay plates by acoustic dispensing.
Plates were incubated over night at 4° C. The next day the plates were washed with PBS buffer containing 0.05% Tween 20 and further incubated with a mouse monoclonal anti-phospho AKT T308 for 2 h. Plates were washed again as above before addition of a horse anti-mouse-HRP conjugated secondary antibody. […] The developed fluorescent product was stopped after 60 minutes by addition of Stop solution to the wells.

mTOR = target: T1, mTOR (Homo sapiens, UniProt P42345); assay: mTOR cellular potency assay (phospho-AKT Ser473 in MDA-MB-468 cells); format: cell-based; details: MDA-MB-468 cells, 2 h, phospho-AKT Ser473; Table 2; read-out: Assay d) mTOR Cell IC50
T1 construct: phosphorylation of the Akt protein at Ser473 (AKT lies downstream of PI3Kα in the signal transduction pathway) in the MDA-MB-468 cells; endogenous in cells; host or cells: MDA-MB-468 cells (ATCC HTB 132)
Excerpt: The following assays were used to measure the effects of the compounds of the present invention: a) ATM cellular potency assay; b) PI3K cellular potency assay; c) mTOR cellular potency assay; d) ATR cellular potency assay. During the description of the assays, generally: • i. The following abbreviations have been used: 4NQO=4-Nitroquinoline N-oxide; Ab=Antibody; BSA=Bovine Serum Albumin; CO2=Carbon Dioxide; DMEM=Dulbecco's Modified Eagle Medium; DMSO=Dimethyl Sulphoxide; EDTA=Ethylenediaminetetraacetic Acid; EGTA=Ethylene Glycol Tetraacetic Acid; ELISA=Enzyme-linked Immunosorbent Assay; EMEM=Eagle's Minimal Essential Medium; FBS=Foetal Bovine Serum; h=H(s); HRP=Horseradish Peroxidase; i.p.=intraperitoneal; PBS=Phosphate buffered saline; PBST=Phosphate buffered saline/Tween; TRIS=Tris(Hydroxymethyl)aminomethane; MTS reagent: [3-(4,5-dimethylthiazol-2-yl)-5-(3-carboxymethoxyphenyl)-2-(4-sulfophenyl)-2H-tetrazolium, inner salt, and an electron coupling reagent (phenazine methosulfate) PMS; s.c. sub-cutaneously. • ii. IC50 values were calculated using a smart fitting model in Genedata.
This assay was used to measure mTOR inhibition in cells. The aim of the phospho-AKT cell based mechanism of action assay using the Acumen Explorer is to identify inhibitors of either PI3Kα or mTOR-Rictor (Rapamycin insensitive companion of mTOR). This is measured by any decrease in the phosphorylation of the Akt protein at Ser473 (AKT lies downstream of PI3Kα in the signal transduction pathway) in the MDA-MB-468 cells following treatment with compound.
MDA-MB-468 cells (human breast adenocarcinoma #ATCC HTB 132) were seeded at 1500 cells/well in 40 μl of DMEM containing 10% FBS and 1% glutamine into Greiner 384 well black flat-bottomed plates. Cell plates were incubated for 18 h in a 37° C. incubator before dosing with compounds of Formula (I) in 100% DMSO using acoustic dispensing. Compounds were dosed in a 12 point concentration range into a randomised plate map. Control wells were generated either by dosing of 100% DMSO (max signal) or addition of a reference compound (a PI3K-62 inhibitor) that completely eliminated the pAKT signal (min control). Plates were incubated at 37° C. for 2 h; cells were then fixed by the addition of […] of a 3.7% formaldehyde solution. After 30 minutes the plates were washed with PBS using a Tecan PW384 plate washer. Wells were blocked and cells permeabilised with the addition of 40 μl of PBS containing 0.5% Tween20 and 1% Marvel™ (dried milk powder) and incubated for 60 minutes at r.t. The plates were washed with PBS containing 0.5% (v/v) Tween20 and 20 μl rabbit anti-phospho AKT Ser473 (Cell Signalling Technologies, #3787) in same PBS-Tween+1% MarvelTM was added and incubated overnight at 4° C.
Plates were washed 3 times with PBS+0.05% Tween 20 using a Tecan PW384. 20 μl of secondary antibody Alexa Fluor 488 anti-Rabbit (Molecular Probes, # A11008) diluted in PBS+0.05% Tween20 containing 1% Marvel™ was added to each well and incubated for 1 h at r.t. Plates were washed three times as before then 20 μl PBS added to each well and plates sealed with a black plate sealer.
The plates were read on an Acumen plate reader as soon as possible, measuring green fluorescence after excitation with 488 nm laser. Using this system IC50 values were generated and quality of plates was determined by control wells. Reference compounds were run each time to monitor assay performance.

Sequence of PI3Kα (P42336 whole entry): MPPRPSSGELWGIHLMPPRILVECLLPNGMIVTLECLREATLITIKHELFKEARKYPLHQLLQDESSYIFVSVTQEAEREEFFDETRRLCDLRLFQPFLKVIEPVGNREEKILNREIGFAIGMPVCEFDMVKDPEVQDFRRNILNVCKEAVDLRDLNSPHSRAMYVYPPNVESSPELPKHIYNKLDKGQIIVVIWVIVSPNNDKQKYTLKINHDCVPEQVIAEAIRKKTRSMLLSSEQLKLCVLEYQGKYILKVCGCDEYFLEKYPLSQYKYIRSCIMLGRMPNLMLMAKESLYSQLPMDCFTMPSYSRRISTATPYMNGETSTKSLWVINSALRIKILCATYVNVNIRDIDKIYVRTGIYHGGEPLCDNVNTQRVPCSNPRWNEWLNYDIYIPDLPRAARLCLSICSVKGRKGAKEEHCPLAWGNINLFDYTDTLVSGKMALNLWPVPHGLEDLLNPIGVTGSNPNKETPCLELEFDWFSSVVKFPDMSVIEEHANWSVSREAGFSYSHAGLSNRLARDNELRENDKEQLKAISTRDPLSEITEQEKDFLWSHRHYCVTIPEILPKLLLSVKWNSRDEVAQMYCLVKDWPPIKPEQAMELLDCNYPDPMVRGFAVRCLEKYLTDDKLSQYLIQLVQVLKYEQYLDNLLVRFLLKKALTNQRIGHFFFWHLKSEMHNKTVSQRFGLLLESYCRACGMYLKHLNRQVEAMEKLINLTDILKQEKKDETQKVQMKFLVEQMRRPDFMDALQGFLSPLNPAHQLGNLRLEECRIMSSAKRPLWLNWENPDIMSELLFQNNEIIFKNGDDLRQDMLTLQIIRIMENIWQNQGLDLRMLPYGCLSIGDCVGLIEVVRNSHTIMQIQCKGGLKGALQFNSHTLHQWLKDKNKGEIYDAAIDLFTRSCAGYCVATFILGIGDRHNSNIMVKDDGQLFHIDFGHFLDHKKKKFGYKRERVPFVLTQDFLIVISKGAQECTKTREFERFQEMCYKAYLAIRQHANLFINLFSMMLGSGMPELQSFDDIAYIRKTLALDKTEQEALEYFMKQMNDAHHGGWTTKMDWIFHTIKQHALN
Sequence of PI3Kα (P27986 2-724, further chain): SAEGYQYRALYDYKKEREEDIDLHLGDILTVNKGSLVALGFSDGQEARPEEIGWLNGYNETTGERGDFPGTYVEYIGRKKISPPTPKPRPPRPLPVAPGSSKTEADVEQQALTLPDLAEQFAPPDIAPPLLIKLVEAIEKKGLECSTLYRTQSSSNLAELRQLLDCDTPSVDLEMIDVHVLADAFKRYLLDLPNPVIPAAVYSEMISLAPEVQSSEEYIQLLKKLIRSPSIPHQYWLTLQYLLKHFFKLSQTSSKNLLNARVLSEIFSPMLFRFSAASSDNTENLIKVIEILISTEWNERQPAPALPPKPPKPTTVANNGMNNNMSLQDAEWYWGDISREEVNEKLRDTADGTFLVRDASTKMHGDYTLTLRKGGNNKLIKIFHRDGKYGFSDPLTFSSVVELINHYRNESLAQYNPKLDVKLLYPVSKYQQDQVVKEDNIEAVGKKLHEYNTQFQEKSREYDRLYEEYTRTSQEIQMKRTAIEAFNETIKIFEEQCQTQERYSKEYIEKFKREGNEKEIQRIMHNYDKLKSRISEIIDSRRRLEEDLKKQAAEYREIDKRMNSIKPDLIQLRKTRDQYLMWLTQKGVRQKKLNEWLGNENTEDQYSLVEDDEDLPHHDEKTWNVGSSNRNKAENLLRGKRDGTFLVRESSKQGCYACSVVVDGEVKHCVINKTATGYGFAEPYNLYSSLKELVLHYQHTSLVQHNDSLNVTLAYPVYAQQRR

SMILES | IC50 (PI3Kα) | IC50 (mTOR)
CNC1CCN(c2ccc(-c3cc4c(cc3F)ncc3c4n([C@H]4C[C@@H](OC)C4)c(=O)n3C)cn2)CC1 [Example 57, 7-Fluoro-1-(cis-3-methoxycyclobutyl)-3-methyl-8-[6-[4-(methylamino)-1-piperidyl]-3-pyridyl]imidazo[4,5-c]quinolin-2-one] | > 30 µM | 7.72 µM
CO[C@H]1C[C@@H](n2c(=O)n(C)c3cnc4ccc(-c5ccc(N6CCC(N(C)C)CC6)nc5)cc4c32)C1 [Example 36, 8-[6-[4-(dimethylamino)-1-piperidyl]-3-pyridyl]-1-(cis-3-methoxycyclobutyl)-3-methyl-imidazo[4,5-c]quinolin-2-one] | 0.987 µM | 3.9 µM
CO[C@H]1CC[C@H](n2c(=O)n(C)c3cnc4ccc(-c5ccc(N6CCC(N(C)C)CC6)nc5)cc4c32)C1 (single isomer, unassigned) [Example 32, 8-[6-[4-(dimethylamino)-1-piperidyl]-3-pyridyl]-1-[trans-3-methoxycyclopentyl]-3-methyl-imidazo[4,5-c]quinolin-2-one] | 0.663 µM | 1.5 µM
CO[C@H]1C[C@@H](n2c(=O)n(C)c3cnc4cc(F)c(-c5ccc(N6CC(N(C)C)C6)nc5)cc4c32)C1 [Example 31, 8-[6-[3-(dimethylamino)azetidin-1-yl]-3-pyridyl]-7-fluoro-1-(cis-3-methoxycyclobutyl)-3-methyl-imidazo[4,5-c]quinolin-2-one] | > 30 µM | 12.8 µM
CN(C)[C@H]1CCN(c2ccc(-c3cc4c(cc3F)ncc3c4n([C@H]4CCCOC4)c(=O)n3C)cn2)C1 [Example 20] | > 10 µM | > 30 µM
CNC1CCN(c2ccc(-c3ccc4ncc5c(c4c3)n([C@H]3C[C@@H](OC)C3)c(=O)n5C)cn2)CC1 [Example 60, 1-(cis-3-methoxycyclobutyl)-3-methyl-8-[6-[4-(methylamino)-1-piperidyl]-3-pyridyl]imidazo[4,5-c]quinolin-2-one] | 0.292 µM | 0.989 µM
CO[C@H]1C[C@@H](n2c(=O)n(C)c3cnc4cc(F)c(-c5ccc(N6CCC(N(C)C)CC6)nc5)cc4c32)C1 [Example 42, 8-[6-[4-(dimethylamino)-1-piperidyl]-3-pyridyl]-7-fluoro-1-(cis-3-methoxycyclobutyl)-3-methyl-imidazo[4,5-c]quinolin-2-one] | > 30 µM | > 15.3 µM
CN(C)[C@@H]1CCN(c2ccc(-c3ccc4ncc5c(c4c3)n([C@@H]3CCCOC3)c(=O)n5C)cn2)C1 [Example 7] | 1.22 µM | 0.616 µM
